Results as given in patent US20070128217A1 (priority 2003, published 2007).

Assays:
[1] = test system: antibodies in sera from SARS patients (sera 1a, 1b, 2, 6, 37, 62, London, SARS-yellow, SARS-green); type: binding, human; parameters: Binding of serum 6 to linear peptides of protein X1 of SARS-CoV Urbani / Binding of serum 37 to linear peptides of protein X1 of SARS-CoV Urbani / Binding of serum 6 to looped/cyclic peptide (PEPSCAN-ELISA) / Binding of serum 37 to looped/cyclic peptide (PEPSCAN-ELISA) / Binding of serum 37 to looped/cyclic peptides of protein X1 of SARS-CoV Urbani / Binding of serum 6 to linear peptides of protein X2 / Binding of serum 37 to linear peptides of protein X2 / Binding of serum 37 to looped/cyclic peptides of protein X2 of SARS-CoV Urbani / Binding of serum 6 to linear peptides of protein M of SARS-CoV Urbani / Binding of serum 37 to linear peptides of protein M of SARS-CoV Urbani / Binding of serum 6 to looped/cyclic peptides of protein M of SARS-CoV Urbani / Binding of serum 37 to looped/cyclic peptides of protein M of SARS-CoV Urbani / Binding of serum 6 to linear peptides of protein X3 of SARS-CoV Urbani / Binding of serum 37 to linear peptides of protein X3 of SARS-CoV Urbani / Binding of serum 37 to looped/cyclic peptides of protein X3 of SARS-CoV Urbani / Binding of serum 6 to linear peptides of protein X4 of SARS-CoV Urbani / Binding of serum 37 to linear peptides of protein X4 of SARS-CoV Urbani / Binding of serum 37 to looped/cyclic peptides of protein X4 of SARS-CoV Urbani / Binding of serum 6 to linear peptides of protein X5 of SARS-CoV Urbani / Binding of serum 37 to linear peptides of protein X5 of SARS-CoV Urbani / Binding of serum 37 to looped/cyclic peptides of protein X5 of SARS-CoV Urbani / Binding of serum 6 to linear peptides of protein N of SARS-CoV Urbani / Binding of serum 37 to linear peptides of protein N of SARS-CoV Urbani / Binding of serum 6 to linear peptide (PEPSCAN-ELISA) / Binding of serum 1a to looped/cyclic peptides of protein N of SARS-CoV Urbani / Binding of serum 1b to looped/cyclic peptides of protein N of SARS-CoV Urbani / Binding of serum 2 to looped/cyclic peptides of protein N of SARS-CoV Urbani / Binding of serum 6 to looped/cyclic peptides of protein N of SARS-CoV Urbani / Binding of serum 37 to looped/cyclic peptides of protein N of SARS-CoV Urbani / Binding of serum 62 to looped/cyclic peptides of protein N of SARS-CoV Urbani / Binding of serum London to looped/cyclic peptides of protein N of SARS-CoV Urbani / Binding of serum SARS-green to looped/cyclic peptides of protein N of SARS-CoV Urbani: unit not given here
[2] = test system: control sera (pooled serum of ten healthy LUMC hospital workers; commercial negative donor pooled serum from the Dutch bloodbank); type: binding, human; parameters: Binding of Control serum LUMC to linear peptides / Binding of Control serum Blood-bank to linear peptides / Binding of Control serum LUMC to looped peptides / Binding of Control Serum Blood-Bank to Looped peptides / Binding of Control serum LUMC to linear peptides of the protein M of SARS-CoV Urbani / Binding of Control serum Blood-bank to linear peptides of the protein M of SARS-CoV Urbani / Binding of Control serum LUMC to looped peptides of the protein M of SARS-CoV Urbani / Binding of Control Serum Blood-Bank to Looped peptides of the protein M of SARS-CoV Urbani: unit not given here
[3] = test system: rabbit serum obtained by immunizing a rabbit with the SARS-CoV strain Frankfurt 1; type: binding; parameters: Binding of a rabbit serum to linear peptides / Binding of a rabbit serum to looped peptides / Rabbit serum linear peptides / Rabbit serum looped peptides / Binding of a rabbit serum to linear peptides of protein N of SARS-CoV Urbani (Rabbit serum linear peptides) / Binding of a rabbit serum to looped/cyclic peptides of protein N of SARS-CoV Urbani (Rabbit serum looped peptides): unit not given here

Sequence | Binding of Control Serum Blood-Bank to Looped peptides [2] | Binding of Control serum Blood-bank to linear peptides [2] | Binding of Control serum LUMC to linear peptides [2] | Binding of Control serum LUMC to looped peptides [2] | Binding of serum 1a to linear peptides of protein X2 [1] | Binding of serum 1a to looped/cyclic peptides of protein X2 of SARS-CoV Urbani [1] | Binding of serum 1b to linear peptides of protein X2 [1] | Binding of serum 1b to looped/cyclic peptides of protein X2 of SARS-CoV Urbani [1] | Binding of serum 2 to linear peptides of protein X2 [1] | Binding of serum 2 to looped/cyclic peptides of protein X2 of SARS-CoV Urbani [1] | Binding of serum 6 to linear peptides of protein X2 [1] | Binding of serum 6 to looped/cyclic peptides of protein X2 of SARS-CoV Urbani [1] | Binding of serum 37 to linear peptides of protein X2 [1] | Binding of serum 37 to looped/cyclic peptides of protein X2 of SARS-CoV Urbani [1] | Binding of serum 62 to linear peptides of protein X2 [1] | Binding of serum 62 to looped/cyclic peptides of protein X2 of SARS-CoV Urbani [1] | Binding of serum London to linear peptides of protein X2 [1] | Binding of serum London to looped/cyclic peptides of protein X2 of SARS-CoV Urbani [1] | Binding of serum SARS-green to linear peptides of protein X2 [1] | Binding of serum SARS-green to looped/cyclic peptides of protein X2 of SARS-CoV Urbani [1] | other results
HFAFACADGTRHTYQ | 0.8 | 0.6 | 0.7 | 0.7 | – | – | – | – | – | – | – | – | – | – | – | – | – | – | – | – | Binding of serum 1a to linear peptides of protein X4 of SARS-CoV Urbani [1]: 0.7; Binding of serum 1a to looped/cyclic peptides of protein X4 of SARS-CoV Urbani [1]: 0.6; Binding of serum 1b to linear peptides of protein X4 of SARS-CoV Urbani [1]: 0.5; Binding of serum 1b to looped/cyclic peptides of protein X4 of SARS-CoV Urbani [1]: 0.5; Binding of serum 2 to linear peptides of protein X4 of SARS-CoV Urbani [1]: 0.4; Binding of serum 2 to looped/cyclic peptides of protein X4 of SARS-CoV Urbani [1]: 0.6; Binding of serum 6 to linear peptides of protein X4 of SARS-CoV Urbani [1]: 0.6; Binding of serum 6 to looped/cyclic peptides of protein X4 of SARS-CoV Urbani [1]: 0.6; Binding of serum 37 to linear peptides of protein X4 of SARS-CoV Urbani [1]: 0.6; Binding of serum 37 to looped/cyclic peptides of protein X4 of SARS-CoV Urbani [1]: 0.6; Binding of serum 62 to linear peptides of protein X4 of SARS-CoV Urbani [1]: 0.6; Binding of serum 62 to looped/cyclic peptides of protein X4 of SARS-CoV Urbani [1]: 0.5; Binding of serum London to linear peptides of protein X4 of SARS-CoV Urbani [1]: 0.6; Binding of serum London to looped/cyclic peptides of protein X4 of SARS-CoV Urbani [1]: 0.2; Binding of serum SARS-green to linear peptides of protein X4 of SARS-CoV Urbani [1]: 0.6; Binding of serum SARS-green to looped/cyclic peptides of protein X4 of SARS-CoV Urbani [1]: 0.2; Binding of serum SARS-yellow to linear peptides of protein X4 of SARS-CoV Urbani [1]: 0.1; Binding of serum SARS-yellow to looped/cyclic peptides of protein X4 of SARS-CoV Urbani [1]: 0.4; Rabbit serum linear peptides [3]: 0.4; Rabbit serum looped peptides [3]: 0.1
QWIQFMMSRRRLLAC | 0.3 | 0.8 | 0.5 | 0.4 | 0.7 | 0.5 | 0.5 | 0.4 | 0.5 | 0.3 | 0.7 | 0.3 | 0.6 | 0.5 | 0.6 | 0.5 | 0.5 | 0.2 | 0.5 | 0.4 | Binding of serum SARS-yellow to linear peptides of protein X2 [1]: 0.6; Binding of serum SARS-yellow to looped/cyclic peptides of protein X2 of SARS-CoV Urbani [1]: 0.4; Binding of a rabbit serum to linear peptides [3]: 1.0; Binding of a rabbit serum to looped peptides [3]: 2.0
FMMSRRRLLACLCKH | 0.6 | 0.7 | 0.4 | 0.5 | 0.7 | 0.4 | 0.5 | 0.4 | 0.5 | 0.3 | 0.7 | 0.5 | 0.6 | 0.3 | 0.6 | 0.4 | 0.7 | 1.2 | 0.5 | 0.3 | Binding of serum SARS-yellow to linear peptides of protein X2 [1]: 0.5; Binding of serum SARS-yellow to looped/cyclic peptides of protein X2 of SARS-CoV Urbani [1]: 0.5; Binding of a rabbit serum to linear peptides [3]: 0.4; Binding of a rabbit serum to looped peptides [3]: 0.6
